Experimental findings from patent US20250214978A1, “AT2R AGONIST” (WUHAN HUMANWELL INNOVATIVE DRUG RESEARCH AND DEVELOPMENT …, priority 2022, published 2025) are described below.

For orientation: IC50 means the concentration at which inhibition is half-maximal. Higher therefore signals a need for much substance.

Each structure is given as a SMILES string.

The experiment deals with AT2R (Homo sapiens (Human), UniProt P50052). The experiment in a line: Binding assay of compounds to AT2R (Tag-lite HTRF ligand binding kit). Conditions: 1 hour incubation at room temperature. As for the experimental part: The assay was performed in accordance with the instruction manual of Angiotensin AT2 Receptor Ligand Binding Assay Kit (#C1TT1AT2, Cisbio). First, a compound stock solution (10 mM) was diluted in a gradient at a 5× dilution ratio (including 10 concentrations, each with two replicates). 160 nL of compounds at different concentrations was added to a 384-well plate. 40 μL of 1×TLB was added to each well, and the mixture was shaken at room temperature for 15 minutes. 15 mL centrifuge tube added with 5 mL of 1×TLB was prepared in advance. The frozen labeled cells were thawed in a water bath at 37° C. (for 1 to 2 minutes), and the thawed cells were quickly transferred to the above 15 mL centrifuge tube. The mixture was mixed well and centrifuged at 1,000 g at room temperature for 5 minutes. The supernatant was removed, and the cells were resuspended by adding 2.7 mL 1×TLB. A new 384-well plate was taken, and 10 μL of mixed cells were added into the corresponding wells according to the assay design. 5 μL of 4× compound solution and 5 μL of 4× Tag-lite red fluorescent labeled ligand were added to each well. After incubation at room temperature for 1 hour, data were read using EnVision with an HTRF mode. The excitation light intensities at 665 nM and 615 nM in each well were read respectively, and the ratio was calculated (Ratio=A665nMIB615 nM). The IC50 value was calculated by means of GraphPad Prism8 software, where X represents logarithmic value of compound concentration; and Y represents ratio of A665 nM/B615 nM.
Sequence of AT2R (P50052 whole entry): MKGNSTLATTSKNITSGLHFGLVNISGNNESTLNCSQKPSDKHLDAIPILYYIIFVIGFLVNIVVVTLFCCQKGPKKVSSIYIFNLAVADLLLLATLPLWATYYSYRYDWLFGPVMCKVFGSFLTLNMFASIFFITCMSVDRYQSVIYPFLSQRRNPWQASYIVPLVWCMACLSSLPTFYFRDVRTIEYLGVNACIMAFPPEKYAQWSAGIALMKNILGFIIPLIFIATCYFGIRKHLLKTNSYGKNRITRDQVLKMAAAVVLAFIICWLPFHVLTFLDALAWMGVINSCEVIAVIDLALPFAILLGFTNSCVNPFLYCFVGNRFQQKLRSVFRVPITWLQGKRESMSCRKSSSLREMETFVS
On the technique in general: TR-FRET usually uses a lanthanide donor and a delayed reading to cut background.
Regarding `CCCCOC(=O)NS(=O)(=O)c1sc(CC(C)C)cc1-c1ccc(Cn2ccnc2)cc1C` [Compound I-1, Butyl ((3-(4-((1H-imidazol-1-yl)methyl)-2-methylphenyl)-5-isobutylthiophen-2-yl)sulfonyl)carbamate], the half-inhibitory concentration (IC50) worked out at 4.28 nM.

As to `CCCCOC(=O)NS(=O)(=O)c1sc(CC(C)C)cc1-c1ccc(Cn2ccnc2)c(C)c1` [Compound I-2, Butyl ((3-(4-((1H-imidazol-1-yl)methyl)-3-methylphenyl)-5-isobutylthiophen-2-yl)sulfonyl)carbamate], the IC50 stood at 3.32 nM. The molecule `CCCCOC(=O)NS(=O)(=O)c1sc(CC(C)C)cc1-c1ccc(Cn2ccnc2)cc1C#N` [Compound I-3, Butyl ((3-(4-((1H-imidazol-1-yl)methyl)-2-cyanophenyl)-5-isobutylthiophen-2-yl)sulfonyl)carbamate] had a half-inhibitory concentration (IC50) of 3.95 nM. The figure for `CCCCOC(=O)NS(=O)(=O)c1sc(CC(C)C)cc1-c1ccc(Cn2ccnc2)c(C#N)c1` [Compound I-4, Butyl ((3-(4-((1H-imidazol-1-yl)methyl)-3-cyanophenyl)-5-isobutylthiophen-2-yl)sulfonyl)carbamate] is 3.54 nM; for `CCCCOC(=O)NS(=O)(=O)c1sc(CC(C)C)cc1-c1ccc(Cn2ccnc2)nc1` [Compound I-6, Butyl ((3-(6-((1H-imidazol-1-yl)methyl)pyridin-3-yl)-5-isobutylthiophen-2-yl)sulfonyl)carbamate] it is 11.4 nM; for `CCCCOC(=O)NS(=O)(=O)c1sc(CC(C)C)cc1-c1ccc(C(C)n2ccnc2)cc1` (centres unmarked) [Compound I-7, Butyl ((3-(4-(1-(1H-imidazol-1-yl)ethyl)phenyl)-5-isobutylthiophen-2-yl)sulfonyl)carbamate] it is 3.8 nM. In turn, `CCCCOC(=O)NS(=O)(=O)c1sc(CC(C)C)c(C)c1-c1ccc(Cn2ccnc2)cc1` [Compound I-8, Butyl ((3-(4-((1H-imidazol-1-yl)methyl)phenyl)-5-isobutyl-4-methylthiophen-2-yl)sulfonyl)carbamate] gave an IC50 of 4.4 nM. `COC(=O)NS(=O)(=O)c1sc(CC(C)C)cc1-c1ccc(Cn2ccnc2C)cc1C#N` [Compound I-10, Methyl (3-(2-cyano-4-((2-methyl-1H-imidazol-1-yl)methyl)phenyl)-5-isobutylthiophen-2-yl)sulfonylcarbamate] registered an IC50 of 2.15 nM. `COC(=O)NS(=O)(=O)c1sc(CC(C)C)cc1-c1ccc(Cn2ccnc2C(C)(C)C)cc1C#N` [Compound I-17, Methyl (3-(4-((2-(tert-butyl)-1H-imidazol-1-yl)methyl)-2-cyanophenyl)-5-isobutylthiophen-2-yl)sulfonylcarbamate] gave an IC50 of 2.09 nM. For `Cc1nccn1Cc1ccc(-c2cc(CC(C)C)sc2S(=O)(=O)NC(=O)NCCC(F)(F)F)c(C#N)c1` [Compound I-18, 3-(2-cyano-4-((2-methyl-1H-imidazol-1-yl)methyl)phenyl)-5-isobutyl-N-((3,3,3-trifluoropropyl)carbamoyl)thiophene-2-sulfonamide] the value was 1.63 nM; for `Cc1cc(Cn2ccnc2C)ccc1-c1cc(CC(C)C)sc1S(=O)(=O)NC(=O)NCc1ccccn1` [Compound I-19, 5-isobutyl-3-(2-methyl-4-((2-methyl-1H-imidazol-1-yl)methyl)phenyl)-N-((pyridin-2-ylmethyl)carbamoyl)thiophene-2-sulfonamide], 1 nM. For the molecule `COC(=O)NS(=O)(=O)c1sc(CC(C)C)cc1-c1ccc(Cn2ccnc2C)c(C)c1` [Compound I-21, Methyl ((5-isobutyl-3-(3-methyl-4-((2-methyl-1H-imidazol-1-yl)methyl)phenyl)thiophen-2-yl)sulfonyl)carbamate], the IC50 was found to be 2.73 nM. As for `CCNC(=O)NS(=O)(=O)c1sc(CC(C)C)cc1-c1ccc(Cn2ccnc2C)c(C)c1` [Compound I-22, N-(ethylcarbamoyl)-5-isobutyl-3-(3-methyl-4-((2-methyl-1H-imidazol-1-yl)methyl)phenyl)thiophene-2-sulfonamide], the IC50 was found to be 7.28 nM.

The molecule `Cc1cc(-c2cc(CC(C)C)sc2S(=O)(=O)NC(=O)NCCO)ccc1Cn1ccnc1C` [Compound I-23, N-((2-hydroxyethyl)carbamoyl)-5-isobutyl-3-(3-methyl-4-((2-methyl-1H-imidazol-1-yl)methyl)phenyl)thiophene-2-sulfonamide] yielded a half-inhibitory concentration (IC50) of 11.3 nM. The figure for `COC(=O)NS(=O)(=O)c1sc(CC(C)C)cc1-c1ccc(Cn2ccnc2C)c(C#N)c1` [Compound I-24, Methyl ((3-(3-cyano-4-((2-methyl-1H-imidazol-1-yl)methyl)phenyl)-5-isobutylthiophen-2-yl)sulfonyl)carbamate] is 1.51 nM; for `COC(=O)NS(=O)(=O)c1sc(CC(C)C)cc1-c1ccc(Cn2ccnc2C(C)(C)C)cc1C` [Compound I-25, Methyl ((3-(4-((2-(tert-butyl)-1H-imidazol-1-yl)methyl)-2-methylphenyl)-5-isobutylthiophen-2-yl)sulfonyl)carbamate] it is 5.65 nM. Turning to `COC(=O)NS(=O)(=O)c1sc(CC(C)C)c(C)c1-c1ccc(Cn2ccnc2C(C)(C)C)cc1` [Compound I-26, Methyl ((3-(4-((2-(tert-butyl)-1H-imidazol-1-yl)methyl)phenyl)-5-isobutyl-4-methylthiophen-2-yl)sulfonyl)carbamate], the IC50 was 3.76 nM. `COC(=O)NS(=O)(=O)c1sc(CC(C)C)cc1-c1ccc(Cn2ccnc2C(C)C)c(C#N)c1` [Compound I-27, Methyl ((3-(3-cyano-4-((2-isopropyl-1H-imidazol-1-yl)methyl)phenyl)-5-isobutylthiophen-2-yl)sulfonyl)carbamate] registered an IC50 of 3.35 nM.

With `CCOC(=O)NS(=O)(=O)c1sc(CC(C)C)c(C)c1-c1ccc(Cn2ccnc2C)cc1` [Compound I-28, Ethyl ((5-isobutyl-4-methyl-3-(4-((2-methyl-1H-imidazol-1-yl)methyl)phenyl)thiophen-2-yl)sulfonyl)carbamate], the IC50 stood at 4.06 nM. In turn, `CCCOC(=O)NS(=O)(=O)c1sc(CC(C)C)c(C)c1-c1ccc(Cn2ccnc2C)cc1` [Compound I-29, Propyl ((5-isobutyl-4-methyl-3-(4-((2-methyl-1H-imidazol-1-yl)methyl)phenyl)thiophen-2-yl)sulfonyl)carbamate] yielded an IC50 of 4.5 nM. Regarding `CCCCOC(=O)NS(=O)(=O)c1sc(CC(C)C)c(C)c1-c1ccc(Cn2ccnc2C)cc1` [Compound I-31, Butyl ((5-isobutyl-4-methyl-3-(4-((2-methyl-1H-imidazol-1-yl)methyl)phenyl)thiophen-2-yl)sulfonyl)carbamate], the IC50 was 4.86 nM. Consider `CCc1nccn1Cc1ccc(-c2c(S(=O)(=O)NC(=O)OC)sc(CC(C)C)c2C)cc1` [Compound I-32, Methyl ((3-(4-((2-ethyl-1H-imidazol-1-yl)methyl)phenyl)-5-isobutyl-4-methylthiophen-2-yl)sulfonyl)carbamate], for which the IC50 was 1.32 nM. On to `COC(=O)NS(=O)(=O)c1sc(CC(C)C)c(C)c1-c1ccc(Cn2ccnc2C(C)C)cc1` [Compound I-33, Methyl ((5-isobutyl-3-(4-((2-isopropyl-1H-imidazol-1-yl)methyl)phenyl)-4-methylthiophen-2-yl)sulfonyl)carbamate], for which the half-maximal inhibitory concentration (IC50) worked out at 1.61 nM.
